Experimental data taken from patent US20160175634A1 (priority 2014, published 2016).
“And” between values parts separate entries of the source, which are not always exact repeats. Identical values can stand only once. Counter-ions that a name gives are not always drawn.

Experiments:
Format in all cases: cell-based
CAH [1] = target: T1, CAH (Moorella thermoacetica, UniProt Q2RGM7)
T1 construct: expressed in transfected cells; host or cells: E. coli BL21(DE3)(pET28b+CAH), IPTG-induced
T1 sequence (Q2RGM7 1-367): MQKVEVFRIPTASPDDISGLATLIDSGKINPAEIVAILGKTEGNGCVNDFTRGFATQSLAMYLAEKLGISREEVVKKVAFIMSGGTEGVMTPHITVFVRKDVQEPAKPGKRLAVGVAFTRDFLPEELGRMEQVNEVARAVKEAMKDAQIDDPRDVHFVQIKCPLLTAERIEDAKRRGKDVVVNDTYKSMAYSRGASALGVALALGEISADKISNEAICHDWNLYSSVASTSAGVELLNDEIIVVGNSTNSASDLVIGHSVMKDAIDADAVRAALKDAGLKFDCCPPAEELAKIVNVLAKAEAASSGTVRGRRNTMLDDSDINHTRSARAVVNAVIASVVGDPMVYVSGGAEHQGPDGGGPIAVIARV

CAH [2] = target: T1, CAH; remark: listed apart in the source
[3] = tested on: Homoprotocatechuate 2,3-dioxygenase
[4] = tested on: Glutathione-S transferase
[5] = tested on: Pseudomonas sp. NCIB 9816-4
Escherichia coli DH5α = tested on: Escherichia coli DH5α
AtzA [6] = target: T2, AtzA (Pseudomonas sp., UniProt P72156)
T2 construct: expressed in transfected cells; host or cells: E. coli DH5α (pMD4)
T2 sequence (P72156 1-474): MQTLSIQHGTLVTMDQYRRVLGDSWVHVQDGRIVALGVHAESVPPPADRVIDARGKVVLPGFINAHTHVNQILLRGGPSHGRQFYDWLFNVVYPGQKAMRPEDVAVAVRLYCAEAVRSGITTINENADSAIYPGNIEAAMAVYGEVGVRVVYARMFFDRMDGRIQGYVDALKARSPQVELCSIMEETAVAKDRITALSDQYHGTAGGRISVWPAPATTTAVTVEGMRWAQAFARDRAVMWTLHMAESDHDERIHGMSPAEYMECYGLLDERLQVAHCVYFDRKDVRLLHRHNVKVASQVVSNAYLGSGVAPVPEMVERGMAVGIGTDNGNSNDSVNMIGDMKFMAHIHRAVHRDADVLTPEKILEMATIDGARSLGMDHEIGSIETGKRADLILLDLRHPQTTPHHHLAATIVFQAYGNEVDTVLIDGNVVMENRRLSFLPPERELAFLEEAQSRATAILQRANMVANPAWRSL

AtzA [7] = target: T2, AtzA; remark: listed apart in the source
Azo reductase = target: T3, Azo reductase (Staphylococcus aureus, UniProt Q50H63)
T3 construct: expressed in transfected cells; host or cells: E. coli DH5 alpha
T3 sequence (Q50H63 1-188): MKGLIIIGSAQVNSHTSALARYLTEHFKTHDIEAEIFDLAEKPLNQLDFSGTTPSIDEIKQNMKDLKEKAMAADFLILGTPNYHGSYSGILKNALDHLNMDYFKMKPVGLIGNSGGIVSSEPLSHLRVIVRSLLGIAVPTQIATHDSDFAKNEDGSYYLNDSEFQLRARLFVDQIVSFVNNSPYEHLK

O=c1[nH]c(=O)[nH]c(=O)[nH]1 [Cyanuric acid]
cyanuric acid removed (CAH [1]): over 7,000 M
degradation of cyanuric acid (in words) (CAH [1]): complete degradation
decrease of initial rate of cyanuric acid degradation (CAH [2]): approximately 50%
cyanuric acid level (CAH [2]; 15 h): undetectable levels

CC(=O)Oc1ccc(O)c(O)c1 [3,4 Dihydroxypheny acetate]
Ratio (free cells/gel) [3]: 1-2.5

O=[N+]([O-])c1ccc(Cl)c([N+](=O)[O-])c1 [1-chloro2,4-dinitrobenzene]
Ratio (free cells/gel) [4]: ~3.8

Oc1ccccc1 [Phenol]
removal of single substrate from hydrocarbon solution (in words) [5]: very low removal

c1ccc2ccccc2c1 [Naphthalene]
final concentration (Escherichia coli DH5α): 215.39 ± 7.23 µM
remaining concentration (Escherichia coli DH5α): 164.26 ± 8.90 µM and 107.67 ± 19.69 µM
concentration (below detection limit) [5]: < 1 nM
concentration left in the bulk solution (C/C0) [5]: ~25%

Cc1ccc(O)cc1 [p-Cresol]
removal of single substrate from hydrocarbon solution (in words) [5]: completely degraded

CCNc1nc(Cl)nc(NC(C)C)n1 [Atrazine, 2-chloro-4-ethylamino-6-isopropylamino-1,3,5-triazine]
enhancement of atrazine degradation rates (AtzA [6]): threefold
rate of atrazine removal, 75% phenyl gel compared to Teos gel (AtzA [6]): approximately 3 fold
rate of hydroxyatrazine formation, 75% phenyl gel compared to Teos gel (AtzA [6]): approximately 3 fold
atrazine removal, solutions left for 24 h (AtzA [7]): complete atrazine removal
increase of degradation rate (AtzA [7]): three-folds

CN(C)c1ccc(/N=N/c2ccccc2C(=O)O)cc1 [methyl red sodium salt]
Ratio (free cells/gel) (Azo reductase): 1.8-3.7
